Experiments:
[1] = target: T1, recombinant human acetylcholinesterase mutant ser/r-met-AChE (serine instead of cysteine at position 611, additional N-terminal methionine); SEQ ID NO:1 numberin (Homo sapiens, UniProt P22303, C611S); experiment: Inhibitor specificity: enzyme reacted five minutes with inhibitor, then acetylthiocholine added (Ellman assay); assay type: biochemical; settings: increasing dosages from 0.8×10^-8 M to 0.8×10^-6 M; dose-dependent
T1 construct: made in house; host or cells: E. coli S.phi.930 harboring pMLF-52ser
Procedure: (§1) AChE activity was assayed by the spectrophotometric method of Ellman using acetylthiocholine as substrate (Ellman, G.L. et al. ([…]) Biochem. Pharm. 7: 88-95)). Acetylthiocholine hydrolysis generates free thiocholine which reacts with Ellman reagent (DTNB) to produce a yellow chromophore. The concentration of the yellow chromophore is determined by the absorption at 412 nm and is proportional to the amount of AChE present. One enzyme unit (U) is the amount of enzyme which hydrolyses 1 μmole of substrate per minute. The extinction coefficient of 1 M chromophore is […]. Specific activity is expressed as U/mg protein.
(§2) The authenticity of the activity of the refolded r-met-AChE and ser/r-met-AChE was verified by testing the refolded protein with two different substrates and a specific inhibitor. Acetylthiocholine (the specific substrate), and butyrylthiocholine (the BuChE substrate), and a specific inhibitor BW-284C51 (see Background of the Invention) were tested to see whether the recombinant enzyme retained the specific characteristics of the naturally-occurring enzyme. The enzyme was assayed with each of the two substrates, or first reacted for five minutes with the specific inhibitor BW-284651 and then the specific substrate was added to the reaction mix. […] Since the butyrylthiocholine was present at a 20-fold higher concentration than acetylthiocholine it is seen that the enzymatic activity towards the butyrylthiocholine is 200-fold less than towards the specific substrate. No activity at all was detected towards the 0.05 mM butyrylthiocholine.

[2] = target: T2, recombinant human acetylcholinesterase mutant ser/r-met-AChE (serine instead of cysteine at position 611, additional N-terminal methionine; SEQ ID NO:1 numbering) (Homo sapiens, UniProt P22303, C611S); experiment: as above; assay type: biochemical; settings: substrate acetylthiocholine, non-purified enzyme
T2 construct: made in house; host or cells: E. coli S.phi.930 harboring pMLF-52ser
Procedure: as §1, §2

CC(=O)SCC[N+](C)(C)C = experiment: purified protein, by the assay type; settings: other: refolded enzyme; Lineweaver-Burk plot (FIG. 8); pH 8.0
Procedure: Lineweaver-Burk Plot of ser/r-met-AChE Enzyme kinetics were determined for the mutant rAChE using acetylthiocholine as substrate.
AChE activity was assayed by the spectrophotometric method of Ellman using acetylthiocholine as substrate (Ellman, G.L. et al. (1981) Biochem. Pharm. 7: 88-95)). Acetylthiocholine hydrolysis generates free thiocholine which reacts with Ellman reagent (DTNB) to produce a yellow chromophore. The concentration of the yellow chromophore is determined by the absorption at 412 nm and is proportional to the amount of AChE present. One enzyme unit (U) is the amount of enzyme which hydrolyses 1 μmole of substrate per minute. The extinction coefficient of 1 M chromophore is 13.6×10^4. Specific activity is expressed as U/mg protein.

T2 sequence (P22303 32-614 C611S): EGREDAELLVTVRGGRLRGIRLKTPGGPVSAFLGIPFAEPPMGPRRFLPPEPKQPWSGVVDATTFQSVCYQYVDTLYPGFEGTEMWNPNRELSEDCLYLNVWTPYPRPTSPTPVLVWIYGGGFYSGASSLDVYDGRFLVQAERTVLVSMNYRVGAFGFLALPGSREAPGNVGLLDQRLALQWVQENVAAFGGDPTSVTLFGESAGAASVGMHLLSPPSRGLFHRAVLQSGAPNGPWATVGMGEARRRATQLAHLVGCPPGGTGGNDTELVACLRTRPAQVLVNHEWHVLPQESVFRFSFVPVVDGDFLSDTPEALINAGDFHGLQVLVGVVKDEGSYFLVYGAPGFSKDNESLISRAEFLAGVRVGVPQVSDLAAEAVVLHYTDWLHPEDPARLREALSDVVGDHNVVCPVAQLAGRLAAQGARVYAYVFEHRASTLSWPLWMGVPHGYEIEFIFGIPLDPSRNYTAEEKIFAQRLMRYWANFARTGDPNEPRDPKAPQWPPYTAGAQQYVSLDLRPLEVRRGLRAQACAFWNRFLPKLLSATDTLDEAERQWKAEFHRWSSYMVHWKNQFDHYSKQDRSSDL
T1 sequence (P22303 32-614 C611S): as above

C=CC[N+](C)(C)c1ccc(CCC(=O)CCc2ccc([N+](C)(C)CC=C)cc2)cc1 [BW284C51]
inhibition [1]: 57%-100%
inhibition at 0.8 µM ([2]; BW284C51 0.8 × 10^-6 M): 100%
inhibition at 0.08 µM ([2]; BW284C51 0.8 × 10^-7 M): 87%
inhibition at 0.008 µM ([2]; BW284C51 0.8 × 10^-8 M): 55%

recombinant human acetylcholinesterase mutant ser/r-met-AChE (serine instead of cysteine at position 611, additional N-terminal methionine; SEQ ID NO:1 numbering) (Homo sapiens; C611S)
Km (CC(=O)SCC[N+](C)(C)C): 100 µM
